This note sets out measurements from patent US8501794B2, “Compounds as cannabinoid receptor ligands” (priority 2007, dated 2013).

Broadly, the Ki is the dissociation constant of the complex between target and ligand, obtained from inhibition or displacement.

Each structure is given as a SMILES string. Read-outs that look alike come from different tables or passages of the source.

The target of one assay is T1, human CB2 receptors (Homo sapiens, UniProt P34972).
T1 construct: expressed in transfected cells; host or cells: HEK293
T1 sequence (P34972 whole entry): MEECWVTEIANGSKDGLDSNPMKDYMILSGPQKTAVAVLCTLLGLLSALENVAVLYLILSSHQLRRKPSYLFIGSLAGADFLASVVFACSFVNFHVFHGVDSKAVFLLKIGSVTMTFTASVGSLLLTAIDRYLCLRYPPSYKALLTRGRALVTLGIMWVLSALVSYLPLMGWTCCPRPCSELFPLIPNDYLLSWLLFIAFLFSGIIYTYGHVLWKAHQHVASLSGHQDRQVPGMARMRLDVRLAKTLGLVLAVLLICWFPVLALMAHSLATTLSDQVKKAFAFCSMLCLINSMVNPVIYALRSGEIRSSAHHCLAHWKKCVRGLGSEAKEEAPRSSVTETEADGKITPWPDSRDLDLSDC
The assay is described as follows: human CB2 radioligand binding assay ([3H]CP-55,940 competition).

The target of the next assay is T2, rat CB2 (Rattus norvegicus, UniProt Q9QZN9).
T2 sequence (Q9QZN9 1-360): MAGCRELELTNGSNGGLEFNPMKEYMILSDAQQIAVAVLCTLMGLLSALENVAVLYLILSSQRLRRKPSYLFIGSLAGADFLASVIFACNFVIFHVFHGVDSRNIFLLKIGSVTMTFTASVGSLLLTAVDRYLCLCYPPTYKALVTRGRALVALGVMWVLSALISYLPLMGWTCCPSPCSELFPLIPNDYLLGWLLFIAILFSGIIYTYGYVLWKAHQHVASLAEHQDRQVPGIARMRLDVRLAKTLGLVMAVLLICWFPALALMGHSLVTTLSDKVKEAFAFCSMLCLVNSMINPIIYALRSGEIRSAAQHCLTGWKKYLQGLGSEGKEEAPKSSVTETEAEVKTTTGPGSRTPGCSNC
Put plainly: rat CB2 radioligand binding assay ([3H]CP-55,940 competition). The arrangement: expressed in transfected cells; host or cells: HEK293.

Setting [1] is: HEK293 membranes, 0.5 nM [3H]CP-55,940, read-out: human CB2 (Ki).
Setting [2] is: HEK293 membranes, 0.5 nM [3H]CP-55,940, read-out: rat CB2 (Ki).

`CCCCc1cn(C(C)(C)C)s/c1=N\C(=O)[C@]1(C)CC[C@H](NC(=O)N2CCOCC2)C1(C)C` [Example 250, N-[(1S,3R)-3-({[(5Z)-4-butyl-2-tert-butylisothiazol-5(2H)-ylidene]amino}carbonyl)-2,2,3-trimethylcyclopentyl]morpholine-4-carboxamide]: the Ki at human CB2 receptors came to 48 nM; on rat CB2, 75 nM.
For `CC(C)Cc1cn(C(C)(C)C)s/c1=N\C(=O)c1cc(C(F)(F)F)ccc1OC[C@@H]1CCCN1C` [Example 197, N-[(5Z)-2-tert-butyl-4-isobutylisothiazol-5(2H)-ylidene]-2-{[(2S)-1-methylpyrrolidin-2-yl]methoxy}-5-(trifluoromethyl)benzamide], the inhibition constant (Ki) on human CB2 receptors (setting [1]) worked out at 260 nM; on rat CB2 (setting [2]), 156 nM.
As to `CCCCc1cn(C(C)(C)C)s/c1=N\C(=O)[C@]1(C)CC[C@H](C(=O)NC[C@H]2CCCO2)C1(C)C` [Example 214, (1R,3S)—N^1-[(5Z)-4-butyl-2-tert-butylisothiazol-5(2H)-ylidene]-1,2,2-trimethyl-N^3-[(2R)-tetrahydrofuran-2-ylmethyl]cyclopentane-1,3-dicarboxamide], the Ki on human CB2 receptors amounted to 130 nM; at rat CB2 it was 83 nM.
Take `COC(=O)CCCc1cn(C(C)(C)C)s/c1=N\C(=O)c1cc(Cl)ccc1OC` [Example 45, Methyl 4-{(5Z)-2-tert-butyl-5-[(5-chloro-2-methoxybenzoyl)imino]-2,5-dihydroisothiazol-4-yl}butanoate]: the inhibition constant Ki at human CB2 receptors (setting [1]) is 120 nM; at rat CB2, 5.6 nM.
As to `CCCCc1cn(C(C)(C)C)s/c1=N\C(=O)[C@]1(C)CC[C@H](NC(C)=O)C1(C)C` [Example 256, (1R,3S)-3-(acetylamino)-N-[(5Z)-4-butyl-2-tert-butylisothiazol-5(2H)-ylidene]-1,2,2-trimethylcyclopentanecarboxamide], the Ki at human CB2 receptors turned out to be 19 nM; on rat CB2, 28 nM.
The corresponding values for `CCCC1CCc2c(/c(=N/C(=O)c3cc(Cl)ccc3OC)sn2C(C)(C)C)C1` (stereo not shown) [Example 9, N-[(3Z)-1-tert-butyl-5-propyl-4,5,6,7-tetrahydro-2,1-benzisothiazol-3(1H)-ylidene]-5-chloro-2-methoxybenzamide] are 0.9 nM and 0.42 nM.
The corresponding values for `CCCCc1cn(C(C)(C)C)s/c1=N\S(=O)(=O)c1cc(Cl)ccc1OC` [Example 115, N-[(5Z)-4-butyl-2-tert-butylisothiazol-5(2H)-ylidene]-5-chloro-2-methoxybenzenesulfonamide] are 53 nM and 33 nM.
`CCCCc1cn(C(C)(C)C)s/c1=N\C(=O)[C@H]1CC[C@@](C)(C(=O)N(C)C)C1(C)C` [Example 183, (1R,3S)—N^3-[(5Z)-4-butyl-2-tert-butylisothiazol-5(2H)-ylidene]-N^1,N^1,1,2,2-pentamethylcyclopentane-1,3-dicarboxamide]: the inhibitory constant (Ki) was found to be 210 nM on human CB2 receptors (setting [1]) and 40 nM at rat CB2.
On to `CCCCc1cn(C(C)(C)C)s/c1=N\C(=O)c1cc(C(C)C)ccc1OC` [Example 82, N-[(5Z)-4-butyl-2-tert-butylisothiazol-5(2H)-ylidene]-5-isopropyl-2-methoxybenzamide], for which the Ki at human CB2 receptors (setting [1]) worked out at 160 nM; on rat CB2, 15 nM.
On the same counts, the results for `COc1ccc(Cl)cc1C(=O)/N=c1\sn(C(C)(C)C)c(C)c1NC(=O)OC(C)(C)C` [Example 162, Tert-butyl [(5Z)-2-tert-butyl-5-{[(5-chloro-2-methoxyphenyl)carbonyl]imino}-3-methyl-2,5-dihydroisothiazol-4-yl]carbamate] are 120 nM and 47 nM.
The corresponding values for `COc1ccc(Cl)cc1C(=O)/N=c1\sn(C(C)(C)C)cc1COC[C@H]1CCCO1` [Example 89, N-[(5Z)-2-tert-butyl-4-{[(2R)-tetrahydrofuran-2-ylmethoxy]methyl}isothiazol-5(2H)-ylidene]-5-chloro-2-methoxybenzamide] are 190 nM and 7.9 nM.
As for `CCCCc1cn(C(C)(C)C)s/c1=N\C(=O)[C@@H]1CC[C@](C)(C(=O)NCCC)C1(C)C` [Example 211, (1S,3R)—N^3-[(5Z)-4-butyl-2-tert-butylisothiazol-5(2H)-ylidene]-1,2,2-trimethyl-N^1-propylcyclopentane-1,3-dicarboxamide], the inhibition constant (Ki) on human CB2 receptors (setting [1]) is 270 nM; on rat CB2 (setting [2]) it was 111 nM.
Consider `CCCCc1cn(C(C)(C)C)s/c1=N\C(=O)[C@@]1(C)CC[C@@H](NC(=O)NC)C1(C)C` [Example 254, (1S,3R)—N-[(5Z)-4-butyl-2-tert-butylisothiazol-5(2H)-ylidene]-1,2,2-trimethyl-3-{[(methylamino)carbonyl]amino}cyclopentanecarboxamide], for which the Ki was 84 nM at human CB2 receptors and 107 nM on rat CB2 (setting [2]).
For `CCCCc1cn(C(C)(C)C)s/c1=N\C(=O)OCC(C)(C)C` [Example 187, Neopentyl (5Z)-4-butyl-2-tert-butylisothiazol-5(2H)-ylidenecarbamate], the inhibitory constant (Ki) on human CB2 receptors was 38 nM; at rat CB2, 8.2 nM.
In the case of `COc1ccc(Cl)cc1C(=O)/N=c1\sn(C(C)(C)C)cc1CCN1CCOCC1` [Example 12, N-[(5Z)-2-tert-butyl-4-(2-morpholin-4-ylethyl)isothiazol-5(2H)-ylidene]-5-chloro-2-methoxybenzamide], the Ki at human CB2 receptors (setting [1]) was 230 nM; on rat CB2 it was 12 nM.
In the case of `CCCCc1cn(C(C)(C)C)s/c1=N\C(=O)[C@]1(C)CC[C@H](C(=O)NCc2ccccn2)C1(C)C` [Example 234, (1R,3S)—N^1-[(5Z)-4-butyl-2-tert-butylisothiazol-5(2H)-ylidene]-1,2,2-trimethyl-N^3-(pyridin-2-ylmethyl)cyclopentane-1,3-dicarboxamide], the results for the Ki on human CB2 receptors (setting [1]) and at rat CB2 (setting [2]) were 320 nM and 142 nM, respectively.
For the compound `CCCCc1cn(C(C)(C)C)s/c1=N\C(=O)OC12CC3CC(CC(C3)C1)C2` [Example 189, 1-adamantyl (5Z)-4-butyl-2-tert-butylisothiazol-5(2H)-ylidenecarbamate], the inhibition constant (Ki) turned out to be 39 nM at human CB2 receptors and 5.3 nM on rat CB2.
Consider `CCCCc1cn(C(C)(C)C)s/c1=N\C(=O)C1(c2ccc(F)cc2Cl)CCCCC1` [Example 95, N-[(5Z)-4-butyl-2-tert-butylisothiazol-5(2H)-ylidene]-1-(2-chloro-4-fluorophenyl)cyclohexanecarboxamide], for which the inhibition constant (Ki) on human CB2 receptors came out at 7.5 nM; at rat CB2, 2.3 nM.
On to `COc1ccc(Cl)cc1C(=O)/N=c1\sn(C(C)(C)C)c2c1CC1(CC2)OCCO1` [Example 10, N-[(3Z)-1-tert-butyl-1,4,6,7-tetrahydro-3H-spiro[2,1-benzisothiazole-5,2′-[1,3]dioxolan]-3-ylidene]-5-chloro-2-methoxybenzamide], for which the Ki on human CB2 receptors (setting [1]) turned out to be 190 nM; at rat CB2 it was 42 nM.
On the same counts, the results for `CCCCc1cn(C(C)(C)C)s/c1=N\C(=O)[C@]1(C)CC[C@H](C(=O)NC2CC2)C1(C)C` [Example 208, (1R,3S)—N^1-[(5Z)-4-butyl-2-tert-butylisothiazol-5(2H)-ylidene]-N^3-cyclopropyl-1,2,2-trimethylcyclopentane-1,3-dicarboxamide] are 200 nM and 11 nM.
Take `CCCCc1cn(C(C)(C)C)s/c1=N\C(=O)[C@]1(C)CC[C@H](NC(=O)N2CC(F)(F)C2)C1(C)C` [Example 261, N-[(1S,3R)-3-({[(5Z)-4-butyl-2-tert-butylisothiazol-5(2H)-ylidene]amino}carbonyl)-2,2,3-trimethylcyclopentyl]-3,3-difluoroazetidine-1-carboxamide]: the results for the Ki on human CB2 receptors and at rat CB2 were 54 nM and 44 nM, respectively.
On the same counts, the results for `CCCCc1cn(C(C)(C)C)s/c1=N\C(=O)[C@H]1CC[C@@](C)(C(=O)NC)C1(C)C` [Example 182, (1R,3S)—N-[(5Z)-4-butyl-2-tert-butylisothiazol-5(2H)-ylidene]-N^1,1,2,2-tetramethylcyclopentane-1,3-dicarboxamidetetramethylcyclopentane-1,3-dicarboxamide] are 350 nM and 327 nM.
`CCCCc1cn(C(C)(C)C)s/c1=N\C(=O)[C@]1(C)CC[C@H](NC(=O)OCC)C1(C)C` [Example 216, Ethyl (1S,3R)-3-({[(5Z)-4-butyl-2-tert-butylisothiazol-5(2H)-ylidene]amino}carbonyl)-2,2,3-trimethylcyclopentylcarbamate]: the figures for the Ki at human CB2 receptors (setting [1]) and on rat CB2 (setting [2]) were 160 nM and 299 nM, respectively.
With `CCCCc1cn(C(C)(C)C)s/c1=N\C(=O)c1cc(Cl)ccc1OCC(F)(F)F` [Example 47, N-[(5Z)-4-butyl-2-tert-butylisothiazol-5(2H)-ylidene]-5-chloro-2-(2,2,2-trifluoroethoxy)benzamide], the Ki came to 7.3 nM on human CB2 receptors and 1.8 nM at rat CB2.
Turning to `CCCCc1cn(C(C)(C)C)s/c1=N\C(=O)[C@]1(C)CC[C@H](NC(=O)N2CC(O)C2)C1(C)C` [Example 260, N-[(1S,3R)-3-({[(5Z)-4-butyl-2-tert-butylisothiazol-5(2H)-ylidene]amino}carbonyl)-2,2,3-trimethylcyclopentyl]-3-hydroxyazetidine-1-carboxamide], the inhibition constant Ki stood at 190 nM at human CB2 receptors (setting [1]) and 361 nM on rat CB2 (setting [2]).
In the case of `CCCCc1cn(C(C)(C)C)s/c1=N\C(=O)[C@]1(C)CC[C@H](NC(=O)N2CCC2)C1(C)C` [Example 263, N-[(1S,3R)-3-({[(5Z)-4-butyl-2-tert-butylisothiazol-5(2H)-ylidene]amino}carbonyl)-2,2,3-trimethylcyclopentyl]azetidine-1-carboxamide], the inhibitory constant (Ki) at human CB2 receptors stood at 33 nM; at rat CB2 it was 77 nM.
